# Measurements taken from ChEMBL document CHEMBL4321854, “Discovery of a First-in-Class Mitogen-Activated Protein Kinase Kinase 1/2 Degrader” (J Med Chem, 2019).
# The source made the active and inactive calls. The rule behind the calls is not given here.
# Experiments:
# [1] = molecular target: T1, von Hippel-Lindau disease tumor suppressor/Dual specificity mitogen-activated protein kinase kinase 2 (Homo sapiens) (UniProt P36507+P40337); assay: (§1) Protac activity against VHL/MEK2 in human COLO205 cells harboring BRAF V600E variant assessed as degradation of MEK2 after 24 hrs by Western blot analysis; assay type: cell-based
# T1 sequence (P36507 whole entry, looked up): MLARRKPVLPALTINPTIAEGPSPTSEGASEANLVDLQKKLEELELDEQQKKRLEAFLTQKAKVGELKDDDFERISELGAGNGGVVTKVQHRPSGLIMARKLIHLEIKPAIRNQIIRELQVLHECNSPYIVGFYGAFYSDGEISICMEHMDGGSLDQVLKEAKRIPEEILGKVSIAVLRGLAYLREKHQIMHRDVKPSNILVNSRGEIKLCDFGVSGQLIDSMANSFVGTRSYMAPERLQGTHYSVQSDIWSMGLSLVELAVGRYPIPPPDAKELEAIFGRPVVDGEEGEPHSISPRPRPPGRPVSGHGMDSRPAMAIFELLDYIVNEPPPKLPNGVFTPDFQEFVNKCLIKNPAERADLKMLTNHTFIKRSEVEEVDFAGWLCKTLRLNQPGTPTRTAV
# T1 sequence (P40337 whole entry, looked up): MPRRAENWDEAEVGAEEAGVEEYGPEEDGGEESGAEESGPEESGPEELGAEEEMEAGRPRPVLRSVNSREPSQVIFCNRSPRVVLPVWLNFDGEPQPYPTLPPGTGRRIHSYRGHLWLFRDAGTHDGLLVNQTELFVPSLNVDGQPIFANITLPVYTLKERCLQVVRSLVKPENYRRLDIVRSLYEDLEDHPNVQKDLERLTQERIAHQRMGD
# [2] = molecular target: von Hippel-Lindau disease tumor suppressor/Dual specificity mitogen-activated protein kinase kinase 2 (Homo sapiens, UniProt P36507+P40337, V600E); assay: as §1; assay type: cell-based
# Sequence of von Hippel-Lindau disease tumor suppressor/Dual specificity mitogen-activated protein kinase kinase 2 (P36507 whole entry, looked up, stated change not applied): as the sequence (P36507 whole entry, looked up) above
# Sequence of von Hippel-Lindau disease tumor suppressor/Dual specificity mitogen-activated protein kinase kinase 2 (P40337 whole entry, looked up, stated change not applied): as the sequence (P40337 whole entry, looked up) above
# [3] = molecular target: T2, von Hippel-Lindau disease tumor suppressor/Dual specificity mitogen-activated protein kinase kinase 1 (Homo sapiens) (UniProt Q02750+P40337); assay: Protac activity against VHL/MEK1 in human HT-29 cells harboring with BRAF V600E variant assessed as degradation of MEK1 by measuring reduction in MEK1 protein level at 0.5 uM after 24 hrs by Western blot analysis relative to control; assay type: cell-based; set-up: scale not given: the % may be the effect or the level left
# T2 sequence (P40337 whole entry, looked up): as above
# T2 sequence (Q02750 whole entry, looked up): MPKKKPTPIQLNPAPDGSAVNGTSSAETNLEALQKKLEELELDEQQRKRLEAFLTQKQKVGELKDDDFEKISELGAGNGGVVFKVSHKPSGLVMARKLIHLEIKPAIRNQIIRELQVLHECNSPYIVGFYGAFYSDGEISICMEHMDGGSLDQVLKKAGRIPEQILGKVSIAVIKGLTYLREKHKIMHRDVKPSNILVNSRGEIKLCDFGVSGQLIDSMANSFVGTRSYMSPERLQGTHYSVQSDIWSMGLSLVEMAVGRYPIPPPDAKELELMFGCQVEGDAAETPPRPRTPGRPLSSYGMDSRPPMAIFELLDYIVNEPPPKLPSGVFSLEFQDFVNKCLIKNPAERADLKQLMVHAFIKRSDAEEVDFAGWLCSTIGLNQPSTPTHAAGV
# [4] = molecular target: T2, von Hippel-Lindau disease tumor suppressor/Dual specificity mitogen-activated protein kinase kinase 1 (Homo sapiens); assay: Protac activity against VHL/MEK1 in human SK-MEL-28 cells harboring with BRAF V600E variant assessed as degradation of MEK1 by measuring reduction in MEK1 protein level at 0.3 uM after 24 hrs by Western blot analysis relative to control; assay type: cell-based; set-up: scale not given: the % may be the effect or the level left
# [5] = molecular target: T2, von Hippel-Lindau disease tumor suppressor/Dual specificity mitogen-activated protein kinase kinase 1 (Homo sapiens); assay: Protac activity against VHL/MEK1 in human HT-29 cells harboring with BRAF V600E variant assessed as degradation of MEK1 at 3 to 5 uM after 24 hrs by Western blot analysis; assay type: cell-based
# [6] = molecular target: T1, von Hippel-Lindau disease tumor suppressor/Dual specificity mitogen-activated protein kinase kinase 2 (Homo sapiens); assay: Protac activity against VHL/MEK2 in human HT-29 cells harboring with BRAF V600E variant assessed as degradation of MEK2 at 3 to 5 uM after 24 hrs by Western blot analysis; assay type: cell-based
# [7] = molecular target: T2, von Hippel-Lindau disease tumor suppressor/Dual specificity mitogen-activated protein kinase kinase 1 (Homo sapiens); assay: Protac activity against VHL/MEK1 in human COLO205 cells harboring with BRAF V600E variant assessed as degradation of MEK1 at 3 to 5 uM after 24 hrs by Western blot analysis; assay type: cell-based
# [8] = molecular target: T3, von Hippel-Lindau disease tumor suppressor/Dual specificity mitogen-activated protein kinase kinase 2/Dual specificity mitogen-activated protein kinase kinase 1 (Homo sapiens) (UniProt P36507+Q02750+P40337); assay: Protac activity against VHL/MEK1/2 in human SK-MEL-28 cells harboring with BRAF V600E variant assessed as reduction in phosphorylation of ERK at T202/Y204 residues after 24 hrs by Western blot analysis; assay type: cell-based
# T3 sequence (P36507 whole entry, looked up): as the sequence (P36507 whole entry, looked up) above
# T3 sequence (P40337 whole entry, looked up): as the sequence (P40337 whole entry, looked up) above
# T3 sequence (Q02750 whole entry, looked up): as the sequence (Q02750 whole entry, looked up) above
# [9] = system: UACC-257; assay: Effect on total ERK protein expression in human UACC257 cells at 0.001 to 5 uM after 24 hrs by Western blot analysis; assay type: functional, cell-based
# [10] = molecular target: T2, von Hippel-Lindau disease tumor suppressor/Dual specificity mitogen-activated protein kinase kinase 1 (Homo sapiens); assay: Protac activity against VHL/MEK1 in human SK-MEL-28 cells harboring with BRAF V600E variant assessed as degradation of MEK1 at 0.1 to 0.3 uM after 4 hrs by Western blot analysis; assay type: cell-based
# [11] = molecular target: T3, von Hippel-Lindau disease tumor suppressor/Dual specificity mitogen-activated protein kinase kinase 2/Dual specificity mitogen-activated protein kinase kinase 1 (Homo sapiens); assay: Protac activity against VHL/MEK1/2 in human SK-MEL-28 cells harboring with BRAF V600E variant assessed as reduction in phosphorylation of ERK at T202/Y204 residues at 0.1 to 0.3 uM by Western blot analysis; assay type: cell-based; settings: TDE = time-dependent effect
# [12] = molecular target: T2, von Hippel-Lindau disease tumor suppressor/Dual specificity mitogen-activated protein kinase kinase 1 (Homo sapiens); assay: Protac activity against VHL/MEK1 in human HT-29 cells harboring with BRAF V600E variant assessed as degradation of MEK1 at 0.3 uM after 3 to 144 hrs by Western blot analysis; assay type: cell-based
# [13] = molecular target: T3, von Hippel-Lindau disease tumor suppressor/Dual specificity mitogen-activated protein kinase kinase 2/Dual specificity mitogen-activated protein kinase kinase 1 (Homo sapiens); assay: Protac activity against VHL/MEK1/2 in human HT-29 cells harboring with BRAF V600E variant assessed as phosphorylation of MEK at S218/222 residues at 0.3 uM pretreated with MEK1/2 inhibitor, PD0325901 for 2 hrs followed by incubation with compound for 2 hrs by Western blot analysis; assay type: cell-based
# [14] = molecular target: T3, von Hippel-Lindau disease tumor suppressor/Dual specificity mitogen-activated protein kinase kinase 2/Dual specificity mitogen-activated protein kinase kinase 1 (Homo sapiens); assay: Protac activity against VHL/MEK1/2 in human SK-MEL-28 cells harboring with BRAF V600E variant assessed as phosphorylation of ERK at T202/Y204 residues at 0.3 uM pretreated with VHL ligand, VH 032 for 2 hrs followed by incubation with compound for 10 hrs by Western blot analysis; assay type: cell-based
# [15] = molecular target: T2, von Hippel-Lindau disease tumor suppressor/Dual specificity mitogen-activated protein kinase kinase 1 (Homo sapiens); assay: Protac activity against VHL/MEK1 in human SK-MEL-28 cells harboring with BRAF V600E variant assessed as degradation of MEK1 by measuring MEK1 protein level at 0.3 uM pretreated with proteasome inhibitor, MG-132 for 2 hrs followed by incubation with compound for 10 hrs by Western blot analysis; assay type: cell-based
# [16] = molecular target: T3, von Hippel-Lindau disease tumor suppressor/Dual specificity mitogen-activated protein kinase kinase 2/Dual specificity mitogen-activated protein kinase kinase 1 (Homo sapiens); assay: Protac activity against VHL/MEK1/2 in human SK-MEL-28 cells harboring with BRAF V600E variant assessed as phosphorylation of MEK at S218/222 residues at 0.3 uM pretreated with proteasome inhibitor, MG-132 for 2 hrs followed by incubation with compound for 10 hrs by Western blot analysis; assay type: cell-based
# [17] = molecular target: T2, von Hippel-Lindau disease tumor suppressor/Dual specificity mitogen-activated protein kinase kinase 1 (Homo sapiens); assay: Protac activity against VHL/MEK1 in human HT-29 cells harboring with BRAF V600E variant assessed as degradation of MEK1 by measuring MEK1 protein level at 0.3 uM pretreated with NEDD8-activating enzyme inhibitor, MLN4924 for 2 hrs followed by incubation with compound for 10 hrs by Western blot analysis; assay type: cell-based
# [18] = molecular target: T1, von Hippel-Lindau disease tumor suppressor/Dual specificity mitogen-activated protein kinase kinase 2 (Homo sapiens); assay: Protac activity against VHL/MEK2 in human SK-MEL-28 cells harboring with BRAF V600E variant assessed as degradation of MEK2 by measuring MEK2 protein level at 0.3 uM pretreated with NEDD8-activating enzyme inhibitor, MLN4924 for 2 hrs followed by incubation with compound for 10 hrs by Western blot analysis; assay type: cell-based
# [19] = molecular target: T3, von Hippel-Lindau disease tumor suppressor/Dual specificity mitogen-activated protein kinase kinase 2/Dual specificity mitogen-activated protein kinase kinase 1 (Homo sapiens); assay: Protac activity against VHL/MEK1/2 in human HT-29 cells harboring with BRAF V600E variant assessed as phosphorylation of MEK at S218/222 residues at 0.3 uM pretreated with NEDD8-activating enzyme inhibitor, MLN4924 for 2 hrs followed by incubation with compound for 10 hrs by Western blot analysis; assay type: cell-based
# [20] = molecular target: T3, von Hippel-Lindau disease tumor suppressor/Dual specificity mitogen-activated protein kinase kinase 2/Dual specificity mitogen-activated protein kinase kinase 1 (Homo sapiens); assay: Protac activity against VHL/MEK1/2 in human SK-MEL-28 cells harboring with BRAF V600E variant assessed as phosphorylation of ERK at T202/Y204 residues at 0.3 uM pretreated with NEDD8-activating enzyme inhibitor, MLN4924 for 2 hrs followed by incubation with compound for 10 hrs by Western blot analysis; assay type: cell-based
# [21] = molecular target: T1, von Hippel-Lindau disease tumor suppressor/Dual specificity mitogen-activated protein kinase kinase 2 (Homo sapiens); assay: Protac activity against VHL/MEK2 in human HT-29 cells harboring with BRAF V600E variant assessed as degradation of MEK2 by measuring reduction in MEK2 protein level at 0.1 uM after 10 hrs by LC-MS based Volcano plot analysis; assay type: cell-based
# [22] = system: UACC-257; assay: Antiproliferative activity against human UACC257 cells assessed as reduction in cell growth after 3 days by MTT assay; assay type: functional
# [23] = system: SK-MEL-28; assay: Inhibition of colony formation in human SK-MEL-28 cells at 10 to 100 nM supplemented with fresh medium containing compound every 3 days for 14 days by crystal violet staining based assay; assay type: functional, cell-based
# [24] = Maximum drug concentration in Swiss albino mouse plasma at 50 mg/kg, ip measured after 0.5 hrs by LC-MS/MS analysis; assay type: ADME, organism-based; set-up: dose 50 mg/kg, route intraperitoneal
# [25] = molecular target: T2, von Hippel-Lindau disease tumor suppressor/Dual specificity mitogen-activated protein kinase kinase 1 (Homo sapiens); assay: Protac activity against VHL/MEK1 in human HT-29 cells harboring with BRAF V600E variant assessed as degradation of MEK1 at 0.1 to 0.3 uM by Western blot analysis; assay type: cell-based; settings: TDE = time-dependent effect
compound,measurement,setting,value
Cc1ncsc1-c1ccc([C@H](C)NC(=O)[C@@H]2C[C@@H](O)CN2C(=O)[C@@H](NC(=O)CCCCCCCCCCNCCCONC(=O)c2ccc(F)c(F)c2Nc2ccc(I)cc2F)C(C)(C)C)cc1,Activity,[1],Dose-dependent effect
same,DC50,[2],11 nM
same,Activity,[3],> 80%
same,Activity,[4],> 90%
same,Activity,[5],Active
same,Activity,[6],Active
same,Activity,[7],Active
same,Activity,[8],Dose-dependent effect
same,Activity,[9],inactive
same,Activity,[10],Active
same,Activity,[11],Tde
same,Activity,[12],Active
same,Activity,[13],inactive
same,Activity,[14],inactive
same,Activity,[15],inactive
same,Activity,[16],inactive
same,Activity,[17],inactive
same,Activity,[18],inactive
same,Activity,[19],inactive
same,Activity,[20],inactive
same,Activity,[21],Active
same,growth inhibition (GI),[22],Dose-dependent effect
same,GI50,"[22]; UACC-257, 72 h",30 to 200 nM
same,inhibition,[23],Active
same,Cmax,[24],1400 nM
same,Activity,[25],Tde
